Assay results: article PMC11992111 (Nature Communications, 2025)

Key:
Format in all cases: binding
AZG2 [1] = molecular target: T1, AZG2 (Arabidopsis thaliana, UniProt Q84MA8); test: ITC
T1 sequence (Q84MA8 1-530): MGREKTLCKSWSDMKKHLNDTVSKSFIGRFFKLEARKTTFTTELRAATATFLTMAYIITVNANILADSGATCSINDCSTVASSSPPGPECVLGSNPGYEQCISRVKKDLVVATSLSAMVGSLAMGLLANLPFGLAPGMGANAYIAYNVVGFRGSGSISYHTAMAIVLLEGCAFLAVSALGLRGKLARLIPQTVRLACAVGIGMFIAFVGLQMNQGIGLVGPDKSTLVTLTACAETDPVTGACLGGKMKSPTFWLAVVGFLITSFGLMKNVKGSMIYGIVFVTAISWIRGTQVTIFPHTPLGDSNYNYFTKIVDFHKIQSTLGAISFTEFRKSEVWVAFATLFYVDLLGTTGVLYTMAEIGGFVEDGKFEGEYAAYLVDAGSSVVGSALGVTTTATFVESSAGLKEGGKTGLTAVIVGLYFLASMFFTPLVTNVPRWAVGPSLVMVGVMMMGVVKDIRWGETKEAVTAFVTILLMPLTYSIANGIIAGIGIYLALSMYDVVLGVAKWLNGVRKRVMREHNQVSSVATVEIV

AZG2 [2] = molecular target: T1, AZG2; test: ITC at pH […]
AZG1 = AZG1 (Arabidopsis thaliana, UniProt Q9SRK7); test: ITC at pH […]

Kd (AZG2 [1]) | Kd (AZG2 [2]) | Kd (AZG1) | SMILES
710 ± 80 nM | – | – | CC(C)=CCNc1ncnc2nc[nH]c12 [iP, N^6-(Δ^2-isopentenyl)adenine]
710 ± 90 nM | – | – | c1coc(CNc2ncnc3[nH]cnc23)c1 [kinetin]
2090 ± 470 nM | – | – | c1ccc(CNc2ncnc3nc[nH]c23)cc1 [BA, benzyladenine]
– | 770 ± 90 nM | 620 ± 110 nM | Nc1ncnc2nc[nH]c12 [adenine]
